Data: BigSolDB 2.1

CCc1cccc2c3c([nH]c12)C(CC)(CC(=O)O)OCC3 (stereo not drawn)
solubility (mole fraction)
Settings	278.15 K	283.15 K	288.15 K	293.15 K	298.15 K	303.15 K	308.15 K	313.15 K	318.15 K	323.15 K
in methyl acetate	–	–	0.0578	0.0638	0.0687	0.0769	0.0834	0.0921	0.101	0.111
in n-butanol	0.0371	0.0422	0.0485	0.0573	0.0675	0.078	0.0873	0.0994	0.117	0.135
in n-butyl acetate	0.0455	0.0507	0.0563	0.0627	0.0682	0.0748	0.0825	0.0915	0.101	0.111
in n-pentyl acetate	0.0453	0.0503	0.0558	0.0621	0.0666	0.0738	0.0803	0.0892	0.0983	0.108
in n-propanol	0.0342	0.0391	0.0452	0.0548	0.0648	0.0751	0.0849	0.0969	0.114	0.131
in toluene	0.00117	0.00147	0.0019	0.0024	0.00316	0.00394	0.00501	0.0065	0.00838	0.0108
